Data set [1] concerns the target UDP-glucuronosyltransferase 1A8 (Homo sapiens, UniProt Q9HAW9). Kind of data set: Drug metabolism assessed as human recombinant UGT1A8-mediated compound formation treated with AMG 853 at 10 uM after 30 mins by LC-MS/MS analysis. Type of data set: ADME. Particulars: recombinant enzyme, 0.5 h.
Data set [2] concerns the target T1, UDP-glucuronosyltransferase 1A1 (Homo sapiens, UniProt P22309).
T1 sequence (P22309 whole entry): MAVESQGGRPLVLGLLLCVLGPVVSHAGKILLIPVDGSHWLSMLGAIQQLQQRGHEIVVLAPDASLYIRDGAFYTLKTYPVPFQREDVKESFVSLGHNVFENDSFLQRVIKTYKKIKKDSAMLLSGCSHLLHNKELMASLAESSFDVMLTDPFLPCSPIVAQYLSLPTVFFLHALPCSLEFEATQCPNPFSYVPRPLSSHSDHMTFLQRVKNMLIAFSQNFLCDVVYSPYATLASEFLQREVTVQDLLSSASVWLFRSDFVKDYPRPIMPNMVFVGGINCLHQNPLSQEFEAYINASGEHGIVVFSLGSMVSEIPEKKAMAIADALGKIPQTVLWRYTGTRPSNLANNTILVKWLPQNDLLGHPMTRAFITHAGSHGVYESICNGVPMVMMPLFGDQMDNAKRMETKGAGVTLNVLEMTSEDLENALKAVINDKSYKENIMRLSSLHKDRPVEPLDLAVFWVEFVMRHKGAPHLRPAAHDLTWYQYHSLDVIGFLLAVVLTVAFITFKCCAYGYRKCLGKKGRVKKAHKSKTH
Kind of data set: Drug metabolism assessed as human recombinant UGT1A1-mediated compound formation treated with AMG 853 at 10 uM after 30 mins by LC-MS/MS analysis. Type of data set: ADME. The settings on record: recombinant enzyme, 0.5 h.

Data set [3] has as its target UDP-glucuronosyltransferase 1A7 (Homo sapiens, UniProt Q9HAW7). Description: Drug metabolism assessed as human recombinant UGT1A7-mediated (2S,3S,4S,5R,6S)-6-(2-(4-(4-(tert-butylcarbamoyl)-2-(2-chloro-4-cyclopropylphenylsulfonamido)phenoxy)-5-chloro-2-fluorophenyl)acetoxy)-3,4,5-trihydroxytetrahydro-2H-pyran-2-carboxylic acid formation at 10 uM after 30 mins by LC-MS/MS analysis. It counts as ADME. The settings on record: recombinant enzyme, 0.5 h.

For the next data set, the target named is CYP1A2 (Homo sapiens, UniProt P05177). Kind of data set: Induction of CYP1A2 in human hepatocytes using phenacetin as substrate at 0.3 to 30 uM treated every 24 hrs for 2 days measured on day 5 by LC-MS/MS analysis relative to control. Type of data set: ADME, cell-based, Hepatocyte. Particulars: probe phenacetin, read-out: FC.
For another data set, the target named is Cytochrome P450 3A7 (Homo sapiens, UniProt P24462). Kind of data set: Drug metabolism assessed as recombinant CYP3A7 (unknown origin)-mediated 2-(4-(4-(tert-butylcarbamoyl)-2-(2-chloro-4-(1-hydroxycyclopropyl)phenylsulfonamido)phenoxy)-5-chloro-2-fluorophenyl)acetic acid formation at 10 uM after 30 mins by LC-MS/MS analysis. It counts as ADME. The settings on record: recombinant enzyme, 0.5 h.

In a further data set the target is T2, Cytochrome P450 2C8 (Homo sapiens, UniProt P10632).
T2 sequence (P10632 whole entry): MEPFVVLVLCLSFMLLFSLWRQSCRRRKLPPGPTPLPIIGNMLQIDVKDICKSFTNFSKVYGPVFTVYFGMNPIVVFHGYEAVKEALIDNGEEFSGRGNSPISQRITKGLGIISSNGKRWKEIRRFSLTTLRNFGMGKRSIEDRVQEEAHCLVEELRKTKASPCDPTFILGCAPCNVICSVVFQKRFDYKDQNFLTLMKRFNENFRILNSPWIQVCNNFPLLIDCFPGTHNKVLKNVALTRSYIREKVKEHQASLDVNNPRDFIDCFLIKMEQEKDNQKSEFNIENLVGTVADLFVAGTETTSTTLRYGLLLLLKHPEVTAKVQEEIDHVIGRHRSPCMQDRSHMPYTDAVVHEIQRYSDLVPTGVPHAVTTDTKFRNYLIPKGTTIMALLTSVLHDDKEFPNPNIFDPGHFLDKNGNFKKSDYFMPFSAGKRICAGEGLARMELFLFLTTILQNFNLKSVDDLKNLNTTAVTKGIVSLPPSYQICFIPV
Kind of data set: Inhibition of CYP2C8 in human liver microsomes assessed as paclitaxel 6-hydroxylation after 5 to 30 mins by LC-MS/MS analysis. It counts as ADME.

Data set [4] can be described thus: Fraction unbound in plasma (unknown origin). It counts as ADME, cell-free.
Data set [5] deals with T1, UDP-glucuronosyltransferase 1A1. Kind of data set: Drug metabolism assessed as human recombinant UGT1A1-mediated (2S,3S,4S,5R,6S)-6-(2-(4-(4-(tert-butylcarbamoyl)-2-(2-chloro-4-cyclopropylphenylsulfonamido)phenoxy)-5-chloro-2-fluorophenyl)acetoxy)-3,4,5-trihydroxytetrahydro-2H-pyran-2-carboxylic acid formation at 10 uM after 30 mins by LC-MS/MS analysis. Type of data set: ADME. The settings on record: recombinant enzyme, 0.5 h.

In data set [6] the target is UDP-glucuronosyltransferase 2B4 (Homo sapiens, UniProt P06133). Kind of data set: Drug metabolism assessed as human recombinant UGT2B4-mediated (2S,3S,4S,5R,6S)-6-(2-(4-(4-(tert-butylcarbamoyl)-2-(2-chloro-4-cyclopropylphenylsulfonamido)phenoxy)-5-chloro-2-fluorophenyl)acetoxy)-3,4,5-trihydroxytetrahydro-2H-pyran-2-carboxylic acid formation at 10 uM after 30 mins by LC-MS/MS analysis. Type of data set: ADME. The settings on record: recombinant enzyme, 0.5 h.

For another data set, the target named is Cytochrome P450 3A4 (Homo sapiens, UniProt P08684). Description: Drug metabolism assessed as recombinant CYP3A4 (unknown origin)-mediated 2-(5-chloro-4-(2-(2-chloro-4-cyclopropylphenylsulfonamido)-4-(1-hydroxy-2-methylpropan-2-ylcarbamoyl)phenoxy)-2-fluorophenyl)acetic acid formation at 10 uM after 30 mins by LC-MS/MS analysis. Type of data set: ADME. The settings on record: recombinant enzyme, 0.5 h.

The target in data set [7] is T3, UDP-glucuronosyltransferase 1A3 (Homo sapiens, UniProt P35503).
T3 sequence (P35503 whole entry): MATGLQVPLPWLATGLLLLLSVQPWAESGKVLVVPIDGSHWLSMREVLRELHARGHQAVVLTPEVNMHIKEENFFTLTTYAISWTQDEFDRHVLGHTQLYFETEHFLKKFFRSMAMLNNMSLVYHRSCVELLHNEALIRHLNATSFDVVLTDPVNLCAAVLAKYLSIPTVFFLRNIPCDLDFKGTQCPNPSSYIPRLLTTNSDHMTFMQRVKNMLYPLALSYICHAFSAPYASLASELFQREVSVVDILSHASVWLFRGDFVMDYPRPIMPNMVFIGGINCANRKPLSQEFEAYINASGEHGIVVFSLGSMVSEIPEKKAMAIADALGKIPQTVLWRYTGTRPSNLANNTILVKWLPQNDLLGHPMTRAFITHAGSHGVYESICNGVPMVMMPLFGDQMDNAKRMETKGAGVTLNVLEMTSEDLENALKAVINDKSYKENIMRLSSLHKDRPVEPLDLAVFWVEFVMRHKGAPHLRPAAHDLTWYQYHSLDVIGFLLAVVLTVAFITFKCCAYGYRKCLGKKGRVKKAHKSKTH
Description: Drug metabolism assessed as human recombinant UGT1A3-mediated (2S,3S,4S,5R,6S)-6-(2-(4-(4-(tert-butylcarbamoyl)-2-(2-chloro-4-cyclopropylphenylsulfonamido)phenoxy)-5-chloro-2-fluorophenyl)acetoxy)-3,4,5-trihydroxytetrahydro-2H-pyran-2-carboxylic acid formation at 10 uM after 30 mins by LC-MS/MS analysis. It counts as ADME. Particulars: recombinant enzyme, 0.5 h.

Each structure is given as a SMILES string.

Sequence of UDP-glucuronosyltransferase 1A8 (Q9HAW9 whole entry): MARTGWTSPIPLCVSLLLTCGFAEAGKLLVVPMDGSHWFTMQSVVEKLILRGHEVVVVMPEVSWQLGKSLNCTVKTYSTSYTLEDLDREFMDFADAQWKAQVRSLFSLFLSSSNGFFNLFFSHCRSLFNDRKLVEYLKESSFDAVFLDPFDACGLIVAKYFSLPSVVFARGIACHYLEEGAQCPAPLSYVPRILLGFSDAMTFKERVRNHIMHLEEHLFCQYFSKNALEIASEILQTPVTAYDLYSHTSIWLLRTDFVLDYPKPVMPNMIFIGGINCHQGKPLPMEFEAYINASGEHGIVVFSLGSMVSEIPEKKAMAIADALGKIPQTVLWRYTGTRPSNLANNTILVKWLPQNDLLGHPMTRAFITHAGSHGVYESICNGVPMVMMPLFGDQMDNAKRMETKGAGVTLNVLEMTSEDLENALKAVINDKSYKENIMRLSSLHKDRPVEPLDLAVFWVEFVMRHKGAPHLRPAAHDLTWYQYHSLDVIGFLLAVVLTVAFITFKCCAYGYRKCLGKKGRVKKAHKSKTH
Sequence of UDP-glucuronosyltransferase 2B4 (P06133 whole entry): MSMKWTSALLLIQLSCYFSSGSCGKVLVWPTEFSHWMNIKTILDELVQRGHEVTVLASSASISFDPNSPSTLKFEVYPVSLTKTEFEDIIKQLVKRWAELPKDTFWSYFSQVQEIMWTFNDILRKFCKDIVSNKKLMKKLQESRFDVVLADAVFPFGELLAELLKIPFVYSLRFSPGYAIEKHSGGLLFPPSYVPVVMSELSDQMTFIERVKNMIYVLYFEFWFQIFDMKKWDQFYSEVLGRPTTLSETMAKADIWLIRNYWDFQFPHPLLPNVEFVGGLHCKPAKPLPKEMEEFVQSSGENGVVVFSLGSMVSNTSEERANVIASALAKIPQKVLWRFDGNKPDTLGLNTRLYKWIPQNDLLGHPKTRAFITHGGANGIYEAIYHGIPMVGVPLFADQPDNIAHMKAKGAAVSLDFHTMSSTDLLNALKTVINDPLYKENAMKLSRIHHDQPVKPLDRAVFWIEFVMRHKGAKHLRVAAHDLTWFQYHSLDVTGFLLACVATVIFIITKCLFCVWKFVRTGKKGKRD
Sequence of CYP1A2 (P05177 whole entry): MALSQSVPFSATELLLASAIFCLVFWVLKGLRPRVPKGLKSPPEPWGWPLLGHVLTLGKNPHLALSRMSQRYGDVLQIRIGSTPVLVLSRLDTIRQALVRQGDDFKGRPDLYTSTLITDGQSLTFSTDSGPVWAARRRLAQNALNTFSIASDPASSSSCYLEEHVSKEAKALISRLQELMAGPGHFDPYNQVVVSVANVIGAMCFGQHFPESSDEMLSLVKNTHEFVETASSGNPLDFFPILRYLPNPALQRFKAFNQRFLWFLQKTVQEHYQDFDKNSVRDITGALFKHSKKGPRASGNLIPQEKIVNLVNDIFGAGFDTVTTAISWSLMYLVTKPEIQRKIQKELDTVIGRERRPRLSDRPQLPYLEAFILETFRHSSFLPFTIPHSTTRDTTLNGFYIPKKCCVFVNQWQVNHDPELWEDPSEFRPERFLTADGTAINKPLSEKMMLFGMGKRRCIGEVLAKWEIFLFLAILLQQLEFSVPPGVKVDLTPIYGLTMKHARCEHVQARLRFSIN
Sequence of UDP-glucuronosyltransferase 1A7 (Q9HAW7 whole entry): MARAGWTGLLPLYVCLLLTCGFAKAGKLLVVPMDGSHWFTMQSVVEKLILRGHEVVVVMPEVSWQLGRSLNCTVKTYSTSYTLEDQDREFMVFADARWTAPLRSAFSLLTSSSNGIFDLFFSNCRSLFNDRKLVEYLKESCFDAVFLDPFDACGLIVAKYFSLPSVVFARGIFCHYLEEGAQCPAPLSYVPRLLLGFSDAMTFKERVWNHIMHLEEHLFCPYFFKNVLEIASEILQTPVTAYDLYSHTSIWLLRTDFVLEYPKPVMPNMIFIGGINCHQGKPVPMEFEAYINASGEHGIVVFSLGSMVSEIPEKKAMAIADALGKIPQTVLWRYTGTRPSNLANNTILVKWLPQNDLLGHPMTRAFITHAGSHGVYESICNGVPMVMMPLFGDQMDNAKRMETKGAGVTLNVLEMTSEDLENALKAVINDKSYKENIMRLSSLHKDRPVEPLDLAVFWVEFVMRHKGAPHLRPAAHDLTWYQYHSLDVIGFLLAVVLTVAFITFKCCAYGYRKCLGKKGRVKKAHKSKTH
Sequence of Cytochrome P450 3A7 (P24462 whole entry): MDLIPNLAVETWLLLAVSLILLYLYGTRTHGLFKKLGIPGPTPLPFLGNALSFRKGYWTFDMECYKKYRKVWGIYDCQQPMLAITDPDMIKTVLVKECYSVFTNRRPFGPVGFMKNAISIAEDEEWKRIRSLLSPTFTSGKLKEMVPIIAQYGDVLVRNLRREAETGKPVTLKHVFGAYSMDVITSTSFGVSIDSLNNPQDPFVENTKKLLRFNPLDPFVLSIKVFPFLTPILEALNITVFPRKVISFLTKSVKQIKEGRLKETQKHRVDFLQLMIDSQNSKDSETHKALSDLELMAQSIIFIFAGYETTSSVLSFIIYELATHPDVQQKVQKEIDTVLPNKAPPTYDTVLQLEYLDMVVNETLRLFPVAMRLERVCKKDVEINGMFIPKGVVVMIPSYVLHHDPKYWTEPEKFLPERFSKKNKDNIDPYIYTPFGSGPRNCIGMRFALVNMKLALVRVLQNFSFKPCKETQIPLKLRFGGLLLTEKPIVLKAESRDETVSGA
Sequence of Cytochrome P450 3A4 (P08684 whole entry): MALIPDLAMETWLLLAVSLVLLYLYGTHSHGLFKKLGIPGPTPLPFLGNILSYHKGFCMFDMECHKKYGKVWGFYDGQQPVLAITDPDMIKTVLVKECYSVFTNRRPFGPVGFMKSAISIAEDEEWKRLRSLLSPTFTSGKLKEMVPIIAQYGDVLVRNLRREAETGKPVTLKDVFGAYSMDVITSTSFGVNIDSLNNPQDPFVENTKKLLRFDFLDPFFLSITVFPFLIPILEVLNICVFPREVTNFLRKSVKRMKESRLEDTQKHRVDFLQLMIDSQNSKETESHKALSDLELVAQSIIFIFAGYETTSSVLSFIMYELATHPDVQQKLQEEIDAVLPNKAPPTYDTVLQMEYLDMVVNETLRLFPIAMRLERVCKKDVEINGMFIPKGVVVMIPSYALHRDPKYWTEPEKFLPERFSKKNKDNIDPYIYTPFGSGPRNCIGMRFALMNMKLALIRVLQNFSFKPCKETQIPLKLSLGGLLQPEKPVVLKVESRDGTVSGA

Turning to `CC(C)(C)NC(=O)c1ccc(Oc2cc(F)c(CC(=O)O[C@@H]3O[C@H](C(=O)O)[C@@H](O)[C@H](O)[C@H]3O)cc2Cl)c(NS(=O)(=O)c2ccc(C3CC3)cc2Cl)c1`, the Drug metabolism result in [1] and in [2] was “metabolite_detected” throughout.

For `CC(C)(C)NC(=O)c1ccc(Oc2cc(F)c(CC(=O)O)cc2Cl)c(NS(=O)(=O)c2ccc(C3CC3)cc2Cl)c1` [VIDUPIPRANT], the Drug metabolism entry in [3] is “metabolite_not_detected”; at Cytochrome P450 3A7 it was “metabolite_detected”; in [5] it was “metabolite_detected”; in [6], “metabolite_not_detected”; at Cytochrome P450 3A4, “metabolite_detected”; in [7], “metabolite_detected”. The fold induction at 48 h, up to 30 µM at CYP1A2 came out at 1.4. At Cytochrome P450 2C8, the IC50 worked out at 5.4 µM. The molecule also gave a fraction unbound in [4] of 0.003.

The values are drawn from ChEMBL document CHEMBL3526017, “Predicting the drug interaction potential of AMG 853, a dual antagonist of the D-prostanoid and chemoattractant receptor-homologous molecule expressed on T helper 2 cells receptors” (Drug Metab Dispos, 2012).
